Patent US20230301300A1, “HERBICIDAL COMPOSITIONS” (SYNGENTA CROP PROTECTION AG, priority 2020, published 2023)

What was measured:
Assay type in all cases: in vivo
[1] = system: Amaranthus retoflexus (AMARE); test: B1 Post-Emergence Efficacy - Test 1; settings: 1000 g/ha, after 13 days, five point scale
Method: (§1) Seeds of a variety of test species are sown in standard soil in pots:— Solanum nigrum (SOLNI), Amaranthus retoflexus (AMARE), Setaria faberi (SETFA), Alopecurus myosuroides (ALOMY), Echinochloa crus-galli (ECHCG), Ipomoea hederacea (IPOHE), Lolium perenne (LOLPE). After 8 days cultivation (post-emergence) under controlled conditions in a glasshouse (at 24/16° C., day/night; 14 hours light; 65% humidity), the plants are sprayed with an aqueous spray solution derived from the formulation of the technical active ingredient in acetone/water (50:50) solution containing 0.5% Tween 20 (polyoxyethylene sorbitan monolaurate, CAS RN 9005-64-5). Compounds are applied at 1000 g/ha. The test plants are then grown in a glasshouse under controlled conditions in a glasshouse (at 24/16° C., day/night; 14 hours light; 65% humidity) and watered twice daily. After 13 days, the test is evaluated for the percentage damage caused to the plant. The biological activities are assessed on a five point scale (5=80-100%; 4=60-79%; 3=40-59%; 2=20-39%; 1=0-19%). A blank value in the table is indicative that the compound was not tested on that species.

[2] = system: Echinochloa crus-galli (ECHCG); test: B1 Post-Emergence Efficacy - Test 1; settings: 1000 g/ha, after 13 days, five point scale
Method: as §1

[3] = system: Ipomoea hederacea (IPOHE); test: B1 Post-Emergence Efficacy - Test 1; settings: 1000 g/ha, after 13 days, five point scale
Method: as §1

Lolium perenne (LOLPE) [4] = test: B1 Post-Emergence Efficacy - Test 1; settings: 1000 g/ha, after 13 days, five point scale
Method: as §1

Setaria faberi (SETFA) = test: B1 Post-Emergence Efficacy - Test 1; settings: 1000 g/ha, after 13 days, five point scale
Method: as §1

Solanum nigrum (SOLNI) = test: B1 Post-Emergence Efficacy - Test 1; settings: 1000 g/ha, after 13 days, five point scale
Method: as §1

[5] = system: Abutilon theophrasti (ABUTH); test: B2 Post-Emergence Efficacy - Test 2; settings: 15 days after application, 0-100 scale
Method: (§2) Seeds of a variety of test species (see Table B1) were sown in standard soil in pots. After cultivation for 12 days (post-emergence) under controlled conditions in a glasshouse (at 24/18° C. or 20/16° C., at day/night; 16 hours light; 65% humidity), the plants were sprayed with an aqueous spray solution derived from the formulation of the technical active ingredient dissolved in IF50 (see Table B2 for composition) and adjuvant (Genapol X080) was added to the spray solution at a rate of 0.2% v/v.
(§3) After application, the test plants were grown in a glasshouse under controlled conditions (as above) and watered twice daily. Herbicidal activity was evaluated 15 days after application on a 0-100 scale. The results, where 0=no damage to test plant and 100=total kill of test plant are shown below in Tables 8 to 11.

[6] = system: Amaranthus retroflexus (AMARE); test: B2 Post-Emergence Efficacy - Test 2; settings: 15 days after application, 0-100 scale
Method: as §2, §3

Beta vulgaris (BEAVA) = test: B2 Post-Emergence Efficacy - Test 2; settings: 15 days after application, 0-100 scale
Method: as §2, §3

Brassica napus (BRSNN) = test: B2 Post-Emergence Efficacy - Test 2; settings: 15 days after application, 0-100 scale
Method: as §2, §3

[7] = system: Chenopodium album (CHEAL); test: B2 Post-Emergence Efficacy - Test 2; settings: 15 days after application, 0-100 scale
Method: as §2, §3

Hordeum vulgare (HORVW) = test: B2 Post-Emergence Efficacy - Test 2; settings: 15 days after application, 0-100 scale
Method: as §2, §3

[8] = system: Ipomoea hederacea (IPOHE); test: B2 Post-Emergence Efficacy - Test 2; settings: 15 days after application, 0-100 scale
Method: as §2, §3

Kochia scoparia (KSHSC) = test: B2 Post-Emergence Efficacy - Test 2; settings: 15 days after application, 0-100 scale
Method: as §2, §3

Lolium perenne (LOLPE) [9] = test: B2 Post-Emergence Efficacy - Test 2; settings: 15 days after application, 0-100 scale
Method: as §2, §3

Sinapis arvensis (SINAR) = test: B2 Post-Emergence Efficacy - Test 2; settings: 15 days after application, 0-100 scale
Method: as §2, §3

Stellaria media (STEME) = test: B2 Post-Emergence Efficacy - Test 2; settings: 15 days after application, 0-100 scale
Method: as §2, §3

[10] = system: Triticum aestivum (TRZAW); test: B2 Post-Emergence Efficacy - Test 2; settings: 15 days after application, 0-100 scale
Method: as §2, §3

Veronica persica (VERPE) = test: B2 Post-Emergence Efficacy - Test 2; settings: 15 days after application, 0-100 scale
Method: as §2, §3

Compound: Cc1nn(C)c(=O)c(-c2c(F)ccc(Cl)c2CCc2ccc(C#N)cc2)c1O [Compound 1.024, 4-[3-chloro-6-fluoro-2-[2-[4-(cyano)phenyl]ethyl]phenyl]-5-hydroxy-2,6-dimethyl-pyridazin-3-one]
- percentage damage caused to the plant, AMARE [1]: 5 (5=80-100%)
- percentage damage caused to the plant, ECHCG [2]: 5 (5=80-100%)
- percentage damage caused to the plant, IPOHE [3]: 5 (5=80-100%)
- percentage damage caused to the plant, LOLPE (Lolium perenne (LOLPE) [4]): 5 (5=80-100%)
- percentage damage caused to the plant, SETFA (Setaria faberi (SETFA)): 5 (5=80-100%)
- percentage damage caused to the plant, SOLNI (Solanum nigrum (SOLNI)): 5 (5=80-100%)
- Herbicidal activity ABUTH ([5]; 15 g/Ha): 90
- Herbicidal activity ABUTH ([5]; 30 g/Ha): 90
- Herbicidal activity ABUTH ([5]; 60 g/Ha): 100
- Herbicidal activity ABUTH ([5]; 125 g/Ha): 100
- Herbicidal activity ABUTH ([5]; 250 g/Ha): 100
- Herbicidal activity ABUTH ([5]; 500 g/Ha): 100
- Herbicidal activity AMARE ([6]; 15 g/Ha): 80
- Herbicidal activity AMARE ([6]; 30 g/Ha): 90
- Herbicidal activity AMARE ([6]; 60 g/Ha): 90
- Herbicidal activity AMARE ([6]; 125 g/Ha): 100
- Herbicidal activity AMARE ([6]; 250 g/Ha): 100
- Herbicidal activity AMARE ([6]; 500 g/Ha): 100
- Herbicidal activity BEAVA (Beta vulgaris (BEAVA); 15 g/Ha): 70
- Herbicidal activity BEAVA (Beta vulgaris (BEAVA); 30 g/Ha): 70
- Herbicidal activity BEAVA (Beta vulgaris (BEAVA); 60 g/Ha): 80
- Herbicidal activity BEAVA (Beta vulgaris (BEAVA); 125 g/Ha): 80
- Herbicidal activity BEAVA (Beta vulgaris (BEAVA); 250 g/Ha): 80
- Herbicidal activity BEAVA (Beta vulgaris (BEAVA); 500 g/Ha): 100
- Herbicidal activity BRSNN (Brassica napus (BRSNN); 15 g/Ha): 80
- Herbicidal activity BRSNN (Brassica napus (BRSNN); 30 g/Ha): 90
- Herbicidal activity BRSNN (Brassica napus (BRSNN); 60 g/Ha): 90
- Herbicidal activity BRSNN (Brassica napus (BRSNN); 125 g/Ha): 90
- Herbicidal activity BRSNN (Brassica napus (BRSNN); 250 g/Ha): 90
- Herbicidal activity BRSNN (Brassica napus (BRSNN); 500 g/Ha): 90
- Herbicidal activity CHEAL ([7]; 15 g/Ha): 60
- Herbicidal activity CHEAL ([7]; 30 g/Ha): 90
- Herbicidal activity CHEAL ([7]; 60 g/Ha): 90
- Herbicidal activity CHEAL ([7]; 125 g/Ha): 90
- Herbicidal activity CHEAL ([7]; 250 g/Ha): 90
- Herbicidal activity CHEAL ([7]; 500 g/Ha): 100
- Herbicidal activity HORVW (Hordeum vulgare (HORVW); 15 g/Ha): 0
- Herbicidal activity HORVW (Hordeum vulgare (HORVW); 30 g/Ha): 10
- Herbicidal activity HORVW (Hordeum vulgare (HORVW); 60 g/Ha): 10
- Herbicidal activity HORVW (Hordeum vulgare (HORVW); 125 g/Ha): 10
- Herbicidal activity HORVW (Hordeum vulgare (HORVW); 250 g/Ha): 10
- Herbicidal activity HORVW (Hordeum vulgare (HORVW); 500 g/Ha): 20
- Herbicidal activity IPOHE ([8]; 30 g/Ha): 100
- Herbicidal activity IPOHE ([8]; 60 g/Ha): 100
- Herbicidal activity IPOHE ([8]; 125 g/Ha): 100
- Herbicidal activity IPOHE ([8]; 250 g/Ha): 100
- Herbicidal activity IPOHE ([8]; 500 g/Ha): 100
- Herbicidal activity KCHSC (Kochia scoparia (KSHSC); 15 g/Ha): 0
- Herbicidal activity KCHSC (Kochia scoparia (KSHSC); 30 g/Ha): 0
- Herbicidal activity KCHSC (Kochia scoparia (KSHSC); 60 g/Ha): 0
- Herbicidal activity KCHSC (Kochia scoparia (KSHSC); 125 g/Ha): 10
- Herbicidal activity KCHSC (Kochia scoparia (KSHSC); 250 g/Ha): 10
- Herbicidal activity KCHSC (Kochia scoparia (KSHSC); 500 g/Ha): 20
- Herbicidal activity LOLPE (Lolium perenne (LOLPE) [9]; 15 g/Ha): 10
- Herbicidal activity LOLPE (Lolium perenne (LOLPE) [9]; 30 g/Ha): 70
- Herbicidal activity LOLPE (Lolium perenne (LOLPE) [9]; 60 g/Ha): 70
- Herbicidal activity LOLPE (Lolium perenne (LOLPE) [9]; 125 g/Ha): 90
- Herbicidal activity LOLPE (Lolium perenne (LOLPE) [9]; 250 g/Ha): 90
- Herbicidal activity LOLPE (Lolium perenne (LOLPE) [9]; 500 g/Ha): 90
- Herbicidal activity SINAR (Sinapis arvensis (SINAR); 15 g/Ha): 80
- Herbicidal activity SINAR (Sinapis arvensis (SINAR); 30 g/Ha): 80
- Herbicidal activity SINAR (Sinapis arvensis (SINAR); 60 g/Ha): 80
- Herbicidal activity SINAR (Sinapis arvensis (SINAR); 250 g/Ha): 90
- Herbicidal activity SINAR (Sinapis arvensis (SINAR); 500 g/Ha): 100
- Herbicidal activity STEME (Stellaria media (STEME); 15 g/Ha): 90
- Herbicidal activity STEME (Stellaria media (STEME); 30 g/Ha): 90
- Herbicidal activity STEME (Stellaria media (STEME); 60 g/Ha): 90
- Herbicidal activity STEME (Stellaria media (STEME); 125 g/Ha): 90
- Herbicidal activity STEME (Stellaria media (STEME); 250 g/Ha): 90
- Herbicidal activity STEME (Stellaria media (STEME); 500 g/Ha): 100
- Herbicidal activity TRZAW ([10]; 15 g/Ha): 0
- Herbicidal activity TRZAW ([10]; 30 g/Ha): 0
- Herbicidal activity TRZAW ([10]; 60 g/Ha): 20
- Herbicidal activity TRZAW ([10]; 125 g/Ha): 30
- Herbicidal activity TRZAW ([10]; 250 g/Ha): 60
- Herbicidal activity TRZAW ([10]; 500 g/Ha): 70
- Herbicidal activity VERPE (Veronica persica (VERPE); 15 g/Ha): 80
- Herbicidal activity VERPE (Veronica persica (VERPE); 30 g/Ha): 80
- Herbicidal activity VERPE (Veronica persica (VERPE); 60 g/Ha): 90
- Herbicidal activity VERPE (Veronica persica (VERPE); 125 g/Ha): 80
- Herbicidal activity VERPE (Veronica persica (VERPE); 250 g/Ha): 100
- Herbicidal activity VERPE (Veronica persica (VERPE); 500 g/Ha): 100
